Laboratory results from BigSolDB 2.1.

Cc1ccccc1S(N)(=O)=O
Conditions | solubility (mole fraction)
in acetone, 273.15 K | 0.0728
in acetone, 279.15 K | 0.0787
in acetone, 283.75 K | 0.0844
in acetone, 289.15 K | 0.091
in acetone, 298.95 K | 0.105
in acetone, 303.25 K | 0.113
in acetone, 308.65 K | 0.124
in acetone, 313.15 K | 0.134
in acetone, 318.15 K | 0.146
in acetone, 323.15 K | 0.158
in acetonitrile, 273.15 K | 0.0167
in acetonitrile, 279.15 K | 0.0196
in acetonitrile, 283.95 K | 0.022
in acetonitrile, 293.35 K | 0.0297
in acetonitrile, 298.95 K | 0.0347
in acetonitrile, 303.25 K | 0.0401
in acetonitrile, 308.95 K | 0.0476
in acetonitrile, 313.15 K | 0.0533
in acetonitrile, 319.15 K | 0.0634
in acetonitrile, 323.85 K | 0.0723
in cyclohexanone, 273.15 K | 0.0803
in cyclohexanone, 279.15 K | 0.0861
in cyclohexanone, 283.95 K | 0.0927
in cyclohexanone, 289.15 K | 0.0992
in cyclohexanone, 293.35 K | 0.105
in cyclohexanone, 298.95 K | 0.114
in cyclohexanone, 303.25 K | 0.122
in cyclohexanone, 308.95 K | 0.133
in cyclohexanone, 313.15 K | 0.143
in cyclohexanone, 319.15 K | 0.156
in cyclohexanone, 323.85 K | 0.168
in cyclopentanone, 273.15 K | 0.098
in cyclopentanone, 279.15 K | 0.104
in cyclopentanone, 283.95 K | 0.111
in cyclopentanone, 289.15 K | 0.118
in cyclopentanone, 293.35 K | 0.124
in cyclopentanone, 298.95 K | 0.133
in cyclopentanone, 303.25 K | 0.142
in cyclopentanone, 308.95 K | 0.152
in cyclopentanone, 313.15 K | 0.16
in cyclopentanone, 319.15 K | 0.175
in cyclopentanone, 323.85 K | 0.187
in dichloromethane, 273.15 K | 0.00161
in dichloromethane, 279.15 K | 0.00199
in dichloromethane, 283.95 K | 0.00233
in dichloromethane, 289.15 K | 0.00304
in dichloromethane, 293.35 K | 0.00365
in dichloromethane, 298.95 K | 0.00463
in dichloromethane, 303.25 K | 0.00547
in dichloromethane, 308.95 K | 0.00697
in dichloromethane, 312.15 K | 0.00785
in ethanol, 273.15 K | 0.00764
in ethanol, 279.15 K | 0.00971
in ethanol, 283.75 K | 0.0116
in ethanol, 289.15 K | 0.0147
in ethanol, 298.95 K | 0.0196
in ethanol, 303.25 K | 0.0226
in ethanol, 308.65 K | 0.0275
in ethanol, 313.15 K | 0.0315
in ethanol, 318.15 K | 0.0374
in ethanol, 323.15 K | 0.0439
in ethyl acetate, 273.15 K | 0.0221
in ethyl acetate, 279.15 K | 0.0248
in ethyl acetate, 283.75 K | 0.0278
in ethyl acetate, 289.15 K | 0.0307
in ethyl acetate, 298.95 K | 0.0377
in ethyl acetate, 303.25 K | 0.0416
in ethyl acetate, 308.65 K | 0.0471
in ethyl acetate, 313.15 K | 0.0518
in ethyl acetate, 318.15 K | 0.0578
in ethyl acetate, 323.15 K | 0.0643
in ethyl formate, 273.15 K | 0.013
in ethyl formate, 279.15 K | 0.0146
in ethyl formate, 283.95 K | 0.0165
in ethyl formate, 289.15 K | 0.0185
in ethyl formate, 293.35 K | 0.0207
in ethyl formate, 298.95 K | 0.0239
in ethyl formate, 303.25 K | 0.0273
in ethyl formate, 308.95 K | 0.0316
in ethyl formate, 313.15 K | 0.0354
in ethyl formate, 319.15 K | 0.0408
in ethyl formate, 323.85 K | 0.0461
in isobutanol, 273.15 K | 0.00205
in isobutanol, 279.15 K | 0.00284
in isobutanol, 283.75 K | 0.00363
in isobutanol, 289.15 K | 0.00476
in isobutanol, 298.95 K | 0.00768
in isobutanol, 303.25 K | 0.00934
in isobutanol, 308.65 K | 0.012
in isobutanol, 313.15 K | 0.0144
in isobutanol, 318.15 K | 0.0178
in isobutanol, 323.15 K | 0.0215
in isopentanol, 273.15 K | 0.00248
in isopentanol, 279.15 K | 0.00333
in isopentanol, 283.95 K | 0.00419
in isopentanol, 289.15 K | 0.00534
in isopentanol, 293.35 K | 0.00642
in isopentanol, 298.95 K | 0.00805
in isopentanol, 303.25 K | 0.00978
in isopentanol, 308.95 K | 0.0125
in isopentanol, 313.15 K | 0.0144
in isopentanol, 319.15 K | 0.0183
in isopentanol, 323.85 K | 0.0214
in isopropanol, 273.15 K | 0.00343
in isopropanol, 279.15 K | 0.00464
in isopropanol, 283.75 K | 0.00581
in isopropanol, 289.15 K | 0.00756
in isopropanol, 298.95 K | 0.0115
in isopropanol, 303.25 K | 0.0137
in isopropanol, 308.65 K | 0.0175
in isopropanol, 313.15 K | 0.0208
in isopropanol, 318.15 K | 0.0252
in isopropanol, 323.15 K | 0.0304
in methanol, 273.15 K | 0.0128
in methanol, 279.15 K | 0.016
in methanol, 283.75 K | 0.0189
in methanol, 289.15 K | 0.0233
in methanol, 298.95 K | 0.0311
in methanol, 303.25 K | 0.0355
in methanol, 308.65 K | 0.0422
in methanol, 313.15 K | 0.0489
in methanol, 318.15 K | 0.0567
in methanol, 323.15 K | 0.0658
in methyl acetate, 273.15 K | 0.027
in methyl acetate, 279.15 K | 0.0303
in methyl acetate, 283.95 K | 0.0337
in methyl acetate, 289.15 K | 0.0374
in methyl acetate, 293.35 K | 0.0405
in methyl acetate, 298.95 K | 0.046
in methyl acetate, 303.25 K | 0.0513
in methyl acetate, 308.95 K | 0.058
in methyl acetate, 313.15 K | 0.0637
in methyl acetate, 319.15 K | 0.0731
in methyl acetate, 323.85 K | 0.0809
in n-butanol, 273.15 K | 0.00341
in n-butanol, 279.15 K | 0.00451
in n-butanol, 283.75 K | 0.00556
in n-butanol, 289.15 K | 0.00731
in n-butanol, 298.95 K | 0.0104
in n-butanol, 303.25 K | 0.0123
in n-butanol, 308.65 K | 0.0154
in n-butanol, 313.15 K | 0.0181
in n-butanol, 318.15 K | 0.0218
in n-butanol, 323.15 K | 0.0262
in n-pentanol, 273.15 K | 0.0027
in n-pentanol, 279.15 K | 0.00363
in n-pentanol, 283.95 K | 0.00456
in n-pentanol, 289.15 K | 0.00568
in n-pentanol, 293.35 K | 0.00705
in n-pentanol, 298.95 K | 0.00875
in n-pentanol, 303.25 K | 0.0108
in n-pentanol, 308.95 K | 0.0134
in n-pentanol, 313.15 K | 0.0158
in n-pentanol, 319.15 K | 0.0195
in n-pentanol, 323.85 K | 0.023
in n-propanol, 273.15 K | 0.00418
in n-propanol, 279.15 K | 0.0055
in n-propanol, 283.75 K | 0.00674
in n-propanol, 289.15 K | 0.00847
in n-propanol, 298.95 K | 0.0126
in n-propanol, 303.25 K | 0.0148
in n-propanol, 308.65 K | 0.0182
in n-propanol, 313.15 K | 0.0215
in n-propanol, 318.15 K | 0.0257
in n-propanol, 323.15 K | 0.03
